Test [1] concerns the target T1, Coagulation factor IX (Homo sapiens, UniProt P00740). Put plainly: (§1) Inhibition of human coagulation factor 9a using fluorescent peptide CH3SO2-D-CHG-Gly-Arg-AFC-AcoH as substrate.
Test [2] deals with T1, Coagulation factor IX. The description is as §1. This is another data set of the same source.

T1 sequence (P00740 47-191 limits assumed): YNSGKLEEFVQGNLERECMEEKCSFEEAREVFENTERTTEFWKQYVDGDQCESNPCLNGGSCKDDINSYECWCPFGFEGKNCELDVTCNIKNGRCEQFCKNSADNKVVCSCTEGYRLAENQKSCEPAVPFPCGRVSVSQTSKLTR
T1 sequence (P00740 227-461 limits assumed): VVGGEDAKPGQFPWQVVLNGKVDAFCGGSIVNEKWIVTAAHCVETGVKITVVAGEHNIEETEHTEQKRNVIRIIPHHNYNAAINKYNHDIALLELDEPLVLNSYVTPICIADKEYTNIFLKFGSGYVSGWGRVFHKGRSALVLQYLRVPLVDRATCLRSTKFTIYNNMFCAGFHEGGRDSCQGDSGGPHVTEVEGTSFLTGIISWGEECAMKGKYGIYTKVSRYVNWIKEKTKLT

Take `Cc1cc2nc([C@@H](CNC(=O)c3c(Cl)cc(-n4cnnc4)cc3Cl)c3ccccc3)[nH]c2cc1C`: the inhibition constant (Ki) on Coagulation factor IX [1] was found to be 15.4 nM; on Coagulation factor IX [2] it was 15 nM.

Broadly, the Ki is a dissociation constant, usually derived from enzyme kinetics or from competition with a known ligand. A high value points to lower affinity.

(Values after BindingDB's records for doi:10.1016/j.bmcl.2015.04.057 (Merck Research Laboratories, 2015).)
